Data reported in paper PMC11385767 (Heliyon, 2024).
“Also recorded” adds a separate entry of the source. No end group written: not given here.

Assays:
[1] = molecular target: HLA-A*11:01 on TAP-deficient T2 cell line (Homo sapiens, UniProt P04439, A114D/D185E/E176A/F33Y/L180Q/S129P/T187R); type: cell-based
[2] = molecular target: HLA-A*02:01 (Homo sapiens, UniProt P04439, D140Y/D185E/D98H/E176V/E277Q/G131W/G231S/I119V/I121R/I166T/I218V/L300P/L318F/N151K/N90K/P208A/P217A/Q86G/Q94H/R138H/R169H/T345S); conditions: ref [20]; cited from earlier work

Row | Sequence | binding ability on T2 cell line (in words, rank) [1] | binding to HLA-A*02:01 (in words) [2]
1 | KLIMTQVSK [KLIMTQVSK] | VITTDHLK ≈ STIHSIQY > KLIMTQVSK > TTDHLKFSK; also recorded: moderate binding affinity | 
2 | FVGEFFTDV |  | positive binding
3 | STIHDSIQY [STIHDSIQY] | no significant difference in IC50 value; also recorded: excellent binding affinity | 
4 | TTDHLKFSK [TTDHLKFSK] | VITTDHLK ≈ STIHSIQY > KLIMTQVSK > TTDHLKFSK; also recorded: lowest binding affinity | 
5 | VINTTDHLK [VINTTDHLK] | VITTDHLK ≈ STIHSIQY > KLIMTQVSK > TTDHLKFSK; also recorded: excellent binding affinity | 
